{
  "source": "paper PMC7248693",
  "about": "“Synthesis and Biological Evaluation of 2-Substituted Benzyl-/Phenylethylamino-4-amino-5-aroylthiazoles as Apoptosis-Inducing Anticancer Agents” (Molecules, 2020)",
  "key": {"[1]": {"tested_on": "CDK9", "parameters": "method as in PMID 30454645", "settings": "cited from earlier work"}, "[2]": {"tested_on": "tubulin", "settings": "previously reported series with general structure 2; reference not printed at the place; read-out: IC50 tubulin assembly assay; cited from earlier work"}, "[3]": {"tested_on": "panel of four different cancer cell lines", "parameters": "method as in earlier work", "settings": "read-out: IC50 against a panel of four different cancer cell lines; cited from earlier work"}, "[4]": {"tested_on": "U-937", "test": "Antiproliferative activity, MTT assay, U-937 cells", "type": "cell-based, human", "settings": "for IC50: Homo sapiens, U-937, 72 h, MTT, mean ± SE, at least three independent experiments", "description": "(§1) In Table 1, we summarize the antiproliferative activity of the 15 novel 2-arylalkylamino-4-amino-5-(3′,4′,5′-trimethoxybenzoyl)thiazole derivatives 8a–o against human leukemia (U-937) and melanoma (SK-MEL-1) tumor cells lines.\n(§2) Human U-937 and SK-MEL-1 cell lines were from the German Collection of Microorganisms and Cell Cultures (Braunschweig, Germany; DSMZ No: ACC 5 and ACC 303, respectively). The U-937 is a myeloid leukemia cell line isolated from a histiocytic lymphoma. SK-MEL-1 is a melanoma cell line. Cells were cultured in suspension in RPMI 1640 medium supplemented with 10% (v/v) fetal bovine serum and antibiotics (100 μg mL^−1 streptomycin and 100 U mL^−1 penicillin), at 37 °C in a humidified atmosphere containing 5% CO2. The trypan blue exclusion method was used for counting the cells by a hemocytometer, and cell viability was always greater than 95% in all experiments. Compounds were dissolved in DMSO, and further dilutions were made in culture medium just before use. […] The effects on cell viability of synthetic compounds were determined using a colorimetric assay with the reduction of 3-(4,5-dimethyl-2-thiazolyl-)-2,5-diphenyl-2H-tetrazolium bromide (MTT) as previously described. Briefly, 5 × 10^3 cells were seeded in 96-well microculture plates with increasing concentrations of compounds for 72 h. Then, MTT (0.5 mg mL^−1) was added and incubated for 4 h, and the reaction was stopped with 20% sodium dodecyl sulfate. A570 was used as a measure of cell viability. Concentrations inducing a 50% inhibition of cell growth were determined graphically by nonlinear regression using the curve-fitting algorithm of GraphPad Prism 4.0 (GraphPad Inc La Jolla, CA, USA)."}, "[5]": {"tested_on": "SK-MEL-1", "test": "Antiproliferative activity, MTT assay, SK-MEL-1 cells", "type": "cell-based, human", "settings": "Homo sapiens, SK-MEL-1; 72 h, MTT; mean ± SE, at least three independent experiments", "description": "as §1, §2"}, "[6]": {"tested_on": "Bovine brain tubulin", "test": "Inhibition of tubulin polymerization (turbidimetric assembly)", "type": "biochemical", "protocol": "Bovine brain tubulin was purified as described previously. To evaluate the effect of the compounds on tubulin assembly in vitro [31], varying concentrations were preincubated with 10 μM tubulin in glutamate buffer at 30 °C and then cooled to 0 °C. After addition of GTP, the mixtures were transferred to 0 °C cuvettes in a recording spectrophotometer and warmed to 30 °C, and the assembly of tubulin was observed turbidimetrically. The IC50 was defined as the compound concentration that inhibited the extent of assembly by 50% after a 20 min incubation."}, "[7]": {"target": "T1, CDK9/CyclinK (Homo sapiens, UniProt P50750)", "T1 construct": "purchased Promega", "T1 sequence (P50750 whole entry)": "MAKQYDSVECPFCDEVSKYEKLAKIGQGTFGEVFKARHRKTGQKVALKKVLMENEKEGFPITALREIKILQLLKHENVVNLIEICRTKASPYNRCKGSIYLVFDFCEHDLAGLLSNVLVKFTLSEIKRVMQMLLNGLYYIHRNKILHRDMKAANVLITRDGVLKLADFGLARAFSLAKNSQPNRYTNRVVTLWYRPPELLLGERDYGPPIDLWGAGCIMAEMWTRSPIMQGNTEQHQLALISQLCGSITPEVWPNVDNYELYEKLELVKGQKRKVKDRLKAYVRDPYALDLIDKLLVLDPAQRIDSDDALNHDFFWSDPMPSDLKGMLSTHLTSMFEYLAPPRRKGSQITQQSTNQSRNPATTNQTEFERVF", "T1 sequence (O75909 whole entry partner)": "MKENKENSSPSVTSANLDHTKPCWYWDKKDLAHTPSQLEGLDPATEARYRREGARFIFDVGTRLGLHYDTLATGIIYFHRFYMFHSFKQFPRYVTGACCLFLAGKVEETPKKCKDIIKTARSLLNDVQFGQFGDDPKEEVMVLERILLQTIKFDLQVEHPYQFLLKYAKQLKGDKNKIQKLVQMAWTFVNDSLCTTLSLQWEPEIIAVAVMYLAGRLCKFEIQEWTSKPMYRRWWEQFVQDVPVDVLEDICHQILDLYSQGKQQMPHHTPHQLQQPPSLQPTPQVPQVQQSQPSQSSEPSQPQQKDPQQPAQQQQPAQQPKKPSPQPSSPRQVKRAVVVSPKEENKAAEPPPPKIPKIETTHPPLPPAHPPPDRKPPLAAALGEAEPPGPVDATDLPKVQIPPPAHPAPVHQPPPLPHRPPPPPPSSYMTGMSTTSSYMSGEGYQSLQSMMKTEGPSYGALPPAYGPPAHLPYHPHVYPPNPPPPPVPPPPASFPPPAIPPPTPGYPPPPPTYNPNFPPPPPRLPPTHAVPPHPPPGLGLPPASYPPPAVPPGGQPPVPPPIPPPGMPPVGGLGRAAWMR", "test": "In vitro CDK inhibition assay (ADP-Glo), CDK9", "type": "biochemical", "settings": "single concentration of 10 μM; range over CDK4, CDK6, CDK9 and 8f, 8k; read-out: enzyme inhibition CDK9", "protocol": "(§3) The CDK4, 6 and 9 inhibitory activies were determined using the CDK4/Cyclin D1 Assay kit (ProQinase, Freiburg im Breisgau, Germany), CDK6/Cyclin D3 Kinase Enzyme System (Promega, Milan, Italy) and CDK9/CyclinK Kinase Enzyme System (Promega) by ADP-Glo CDK assays following the manufacturer’s instructions. The assay was performed with the test compounds at 10 μM."}, "[8]": {"target": "T2, CDK4/Cyclin D1 (Homo sapiens, UniProt P11802)", "T2 construct": "purchased ProQinase", "T2 sequence (P11802 whole entry)": "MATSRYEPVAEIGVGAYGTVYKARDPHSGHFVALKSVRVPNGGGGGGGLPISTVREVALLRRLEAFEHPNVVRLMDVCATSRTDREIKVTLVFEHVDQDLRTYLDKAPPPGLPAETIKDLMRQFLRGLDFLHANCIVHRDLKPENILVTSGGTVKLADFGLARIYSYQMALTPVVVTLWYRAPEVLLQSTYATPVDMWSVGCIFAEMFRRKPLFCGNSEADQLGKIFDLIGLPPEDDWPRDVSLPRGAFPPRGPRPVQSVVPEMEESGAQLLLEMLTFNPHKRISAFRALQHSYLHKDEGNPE", "T2 sequence (P24385 whole entry partner)": "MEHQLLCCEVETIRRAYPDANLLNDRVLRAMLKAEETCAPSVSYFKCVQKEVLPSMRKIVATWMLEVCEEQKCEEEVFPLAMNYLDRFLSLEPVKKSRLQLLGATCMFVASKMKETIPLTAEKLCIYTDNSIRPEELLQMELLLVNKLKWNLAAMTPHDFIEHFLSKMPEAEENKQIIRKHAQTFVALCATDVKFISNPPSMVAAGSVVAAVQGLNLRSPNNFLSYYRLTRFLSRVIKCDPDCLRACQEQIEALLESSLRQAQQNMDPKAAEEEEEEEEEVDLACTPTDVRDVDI", "test": "In vitro CDK inhibition assay (ADP-Glo), CDK4", "type": "biochemical", "settings": "single concentration of 10 μM; range over CDK4, CDK6, CDK9 and 8f, 8k; read-out: enzyme inhibition CDK4", "protocol": "as §3"}, "[9]": {"test": "Cytotoxicity against peripheral blood lymphocytes, MTT assay", "type": "cell-based", "settings": "human, peripheral blood lymphocytes (PBL) from healthy donors, read-out: IC50 cytotoxic activity against normal cells (PBL)", "protocol": "In order to investigate the selective antiproliferative activity of the new synthesized compounds, we tested representative derivatives 8f and 8k against peripheral blood lymphocytes (PBL) isolated from healthy donors.\nPBLs from healthy donors were obtained by separation on Lymphoprep (Fresenius KABI Norge AS, Halden, Norway) gradient. After extensive washing, cells were resuspended (1.0 × 10^6 cells/mL) in RPMI-1640 with 10% fetal bovine serum and incubated overnight in a 96-well tissue culture microtiter plate. Varying compound concentrations were added to the cells, and the MTT assay was used to assess viability after a 48 h treatment."}, "[10]": {"target": "T3, CDK6/Cyclin D3 (Homo sapiens, UniProt Q00534)", "T3 construct": "purchased Promega", "T3 sequence (Q00534 whole entry)": "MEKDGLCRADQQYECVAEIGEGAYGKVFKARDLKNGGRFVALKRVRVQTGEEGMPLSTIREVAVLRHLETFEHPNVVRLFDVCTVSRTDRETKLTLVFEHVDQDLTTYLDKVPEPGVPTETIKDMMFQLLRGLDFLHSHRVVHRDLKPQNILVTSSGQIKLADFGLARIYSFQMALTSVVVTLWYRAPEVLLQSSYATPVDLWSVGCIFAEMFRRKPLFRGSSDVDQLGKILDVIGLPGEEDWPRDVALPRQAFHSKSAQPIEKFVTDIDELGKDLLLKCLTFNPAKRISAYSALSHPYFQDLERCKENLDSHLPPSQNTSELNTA", "T3 sequence (P30281 whole entry partner)": "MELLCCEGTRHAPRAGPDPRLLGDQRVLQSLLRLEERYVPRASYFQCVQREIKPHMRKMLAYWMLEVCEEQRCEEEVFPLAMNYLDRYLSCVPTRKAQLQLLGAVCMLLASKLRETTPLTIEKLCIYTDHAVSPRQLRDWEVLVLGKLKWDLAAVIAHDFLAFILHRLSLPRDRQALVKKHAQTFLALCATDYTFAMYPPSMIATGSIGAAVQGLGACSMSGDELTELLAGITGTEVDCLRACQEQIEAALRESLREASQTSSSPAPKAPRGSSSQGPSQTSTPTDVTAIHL", "test": "In vitro CDK inhibition assay (ADP-Glo), CDK6", "type": "biochemical", "settings": "single concentration of 10 μM; range over CDK4, CDK6, CDK9 and 8f, 8k; read-out: enzyme inhibition CDK6", "protocol": "as §3"}, "[11]": {"tested_on": "U-937 leukemia cells", "test": "Cell cycle analysis by flow cytometry (propidium iodide)", "type": "cell-based, human", "protocol": "Induction of apoptosis in cancer cells is recognized as an efficient strategy for cancer chemotherapy. For this reason, it was decided to determine whether these compounds display their cytotoxic action through alterations in cell cycle progression and induction of cell apotosis. To this end, the effects at different time periods (6, 12 and 24 h) with different concentrations (10 and 30 μM) of 8f and 8k on cell cycle progression on U-937 leukemia cells were investigated by flow cytometry analyses.\nFlow cytometric analysis of propidium iodide-stained cells was performed as previously described. Briefly, U-937 cells were treated with the indicated compounds at the specified concentrations in RPMI 1640 medium. After treatments, cells were centrifuged for 10 min at 500× g, washed with cold phosphate-buffered saline (PBS), fixed with ice-cold 75% ethanol and stored at −20 °C for at least 1 h. Samples were then centrifuged at 500 × g for 10 min at 4 °C, washed with PBS, resuspended in 200 μL of PBS containing 100 μg mL^−1 RNase A and 50 μg mL^−1 propidium iodide and incubated for 1 h in the dark. The DNA content was analyzed by flow cytometry with a Becton-Dickinson FACSVerse^TM cytometer (BD Biosciences, San Jose, CA, USA). The percentage of cells in each phase of the cell cycle was determined for a minimum of 10^4 cells, and histograms were analyzed with Flowing 2.5.0 software."}},
  "data": [
    {"molecule": "Nc1nc(N[C@H]2CC3CCC2C3)sc1C(=O)c1ccccc1[N+](=O)[O-]", "note": "(stereo partly drawn) [compound 7, 2-(exo-2′-aminonorbornane)-4-amino-5-(2′-nitrobenzoyl)-thiazole]", "values": [
      {"measurement": "selectivity for CDK9 than for other CDKs", "setting": "[1]", "result": "at least 22 fold"}
    ]},
    {"molecule": "COc1cc(C(=O)c2sc(Nc3ccc(C)cc3)nc2N)cc(OC)c1OC", "note": "[2b]", "values": [
      {"measurement": "IC50", "setting": "[2]", "result": 0.72, "unit": "µM"}
    ]},
    {"molecule": "COc1cc(C(=O)c2sc(N(C)Cc3ccccc3)nc2N)cc(OC)c1OC", "note": "[3a]", "values": [
      {"measurement": "IC50", "setting": "[3]", "result": "< 200", "unit": "µM"}
    ]},
    {"molecule": "COc1ccc(/C=C\\c2cc(OC)c(OC)c(OC)c2)cc1O", "note": "[CA-4, combretastatin A-4, reference compound]", "values": [
      {"measurement": "IC50", "setting": "[2]", "result": 1.4, "unit": "µM"},
      {"measurement": "IC50", "setting": "[4]", "result": "0.019 ± 0.012", "unit": "µM"},
      {"measurement": "IC50", "setting": "[5]", "result": "3.1 ± 2.9", "unit": "µM"}
    ]},
    {"molecule": "COc1ccc(CCNc2nc(N)c(C(=O)c3cc(OC)c(OC)c(OC)c3)s2)cc1", "note": "[8k, (4-Amino-2-((4-methoxyphenethyl)amino)thiazol-5-yl)(3,4,5-trimethoxyphenyl)methanone]", "values": [
      {"measurement": "IC50", "setting": "[6]; 10 μM tubulin, 20 min incubation at 30 °C", "result": "> 20", "unit": "µM"},
      {"measurement": "inhibition of tubulin polymerization", "setting": "[6]; at high concentrations (up to 20 μM)", "result": "did not show any noteworthy inhibition"},
      {"measurement": "inhibition at 10 µM", "setting": "[7]", "result": "2 to 8", "unit": "%"},
      {"measurement": "inhibition at 10 µM", "setting": "[8]", "result": "2 to 8", "unit": "%"},
      {"measurement": "IC50 at 48 h", "setting": "[9]", "result": "> 100", "unit": "µM"},
      {"measurement": "inhibition at 10 µM", "setting": "[10]", "result": "2 to 8", "unit": "%"},
      {"measurement": "IC50", "setting": "[4]", "result": "5.7 ± 1.3", "unit": "µM"},
      {"measurement": "increase of antiproliferative activity relative to 8j", "setting": "[4]; cell line not specified (U-937 and SK-MEL-1)", "result": "3-4 fold"},
      {"measurement": "% G1", "setting": "[11]; 6 h, 10 µM", "result": "38.7 ± 0.3", "unit": "%"},
      {"measurement": "% G2-M", "setting": "[11]; 6 h, 10 µM", "result": "25.3 ± 0.2", "unit": "%"},
      {"measurement": "% S", "setting": "[11]; 6 h, 10 µM", "result": "30.7 ± 0.1", "unit": "%"},
      {"measurement": "% Sub-G1", "setting": "[11]; 6 h, 10 µM", "result": "3.7 ± 0.4", "unit": "%"},
      {"measurement": "% G1", "setting": "[11]; 6 h, 30 µM", "result": "35.6 ± 0.5", "unit": "%"},
      {"measurement": "% G2-M", "setting": "[11]; 6 h, 30 µM", "result": "23.1 ± 0.4", "unit": "%"},
      {"measurement": "% S", "setting": "[11]; 6 h, 30 µM", "result": "32.0 ± 0.5", "unit": "%"},
      {"measurement": "% Sub-G1", "setting": "[11]; 6 h, 30 µM", "result": "7.6 ± 0.5", "unit": "%"},
      {"measurement": "% G1", "setting": "[11]; 12 h, 10 µM", "result": "41.9 ± 0.1", "unit": "%"},
      {"measurement": "% G2-M", "setting": "[11]; 12 h, 10 µM", "result": "23.7 ± 1.4", "unit": "%"},
      {"measurement": "% S", "setting": "[11]; 12 h, 10 µM", "result": "20.2 ± 0.4", "unit": "%"},
      {"measurement": "% Sub-G1", "setting": "[11]; 12 h, 10 µM", "result": "12.1 ± 0.8", "unit": "%"},
      {"measurement": "% G1", "setting": "[11]; 12 h, 30 µM", "result": "17.3 ± 0.4", "unit": "%"},
      {"measurement": "% G2-M", "setting": "[11]; 12 h, 30 µM", "result": "29.9 ± 1.7", "unit": "%"},
      {"measurement": "% S", "setting": "[11]; 12 h, 30 µM", "result": "26.8 ± 0.2", "unit": "%"},
      {"measurement": "% Sub-G1", "setting": "[11]; 12 h, 30 µM", "result": "24.3 ± 1.5", "unit": "%"},
      {"measurement": "% G1", "setting": "[11]; 24 h, 10 µM", "result": "39.4 ± 0.2", "unit": "%"},
      {"measurement": "% G2-M", "setting": "[11]; 24 h, 10 µM", "result": "17.2 ± 0.6", "unit": "%"},
      {"measurement": "% S", "setting": "[11]; 24 h, 10 µM", "result": "28.4 ± 1.1", "unit": "%"},
      {"measurement": "% Sub-G1", "setting": "[11]; 24 h, 10 µM", "result": "12.7 ± 0.1", "unit": "%"},
      {"measurement": "% G1", "setting": "[11]; 24 h, 30 µM", "result": "11.2 ± 0.9", "unit": "%"},
      {"measurement": "% G2-M", "setting": "[11]; 24 h, 30 µM", "result": "23.8 ± 2.9", "unit": "%"},
      {"measurement": "% S", "setting": "[11]; 24 h, 30 µM", "result": "11.5 ± 0.4", "unit": "%"},
      {"measurement": "% Sub-G1", "setting": "[11]; 24 h, 30 µM", "result": "51.5 ± 4.2", "unit": "%"},
      {"measurement": "increase of apoptotic cells with respect to control cells", "setting": "[11]; 24 h, 30 µM", "result": "~15", "unit": "fold"},
      {"measurement": "IC50", "setting": "[5]", "result": "8 ± 4.3", "unit": "µM"}
    ]}
  ]
}
